Source: US20060111341A1, “Use of galanthamine and the derivatives thereof in the production of medicaments” (priority 2003, published 2006)

What was measured:
Butyrylcholinesterase = Butyrylcholinesterase (Homo sapiens, UniProt P06276); experiment: biochemical
Acetylcholinesterase = Acetylcholinesterase (Homo sapiens, UniProt P22303); experiment: biochemical
Chain of Acetylcholinesterase (P22303 32-614): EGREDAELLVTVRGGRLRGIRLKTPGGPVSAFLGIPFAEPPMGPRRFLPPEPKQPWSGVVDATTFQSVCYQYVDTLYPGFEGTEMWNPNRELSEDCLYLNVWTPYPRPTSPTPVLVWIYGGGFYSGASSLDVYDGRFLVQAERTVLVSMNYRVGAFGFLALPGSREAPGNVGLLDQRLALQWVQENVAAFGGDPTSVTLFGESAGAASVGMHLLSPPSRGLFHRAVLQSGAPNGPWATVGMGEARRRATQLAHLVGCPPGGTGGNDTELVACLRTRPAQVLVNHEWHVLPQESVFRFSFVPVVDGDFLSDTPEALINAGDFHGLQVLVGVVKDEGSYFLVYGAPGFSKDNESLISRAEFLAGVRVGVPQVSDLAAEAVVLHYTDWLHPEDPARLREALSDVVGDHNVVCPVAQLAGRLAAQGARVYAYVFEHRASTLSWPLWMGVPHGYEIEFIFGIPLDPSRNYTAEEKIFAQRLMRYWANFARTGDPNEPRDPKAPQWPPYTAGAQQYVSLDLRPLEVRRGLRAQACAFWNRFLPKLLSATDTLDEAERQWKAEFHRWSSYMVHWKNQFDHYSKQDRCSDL

Chain of Butyrylcholinesterase (P06276 29-602): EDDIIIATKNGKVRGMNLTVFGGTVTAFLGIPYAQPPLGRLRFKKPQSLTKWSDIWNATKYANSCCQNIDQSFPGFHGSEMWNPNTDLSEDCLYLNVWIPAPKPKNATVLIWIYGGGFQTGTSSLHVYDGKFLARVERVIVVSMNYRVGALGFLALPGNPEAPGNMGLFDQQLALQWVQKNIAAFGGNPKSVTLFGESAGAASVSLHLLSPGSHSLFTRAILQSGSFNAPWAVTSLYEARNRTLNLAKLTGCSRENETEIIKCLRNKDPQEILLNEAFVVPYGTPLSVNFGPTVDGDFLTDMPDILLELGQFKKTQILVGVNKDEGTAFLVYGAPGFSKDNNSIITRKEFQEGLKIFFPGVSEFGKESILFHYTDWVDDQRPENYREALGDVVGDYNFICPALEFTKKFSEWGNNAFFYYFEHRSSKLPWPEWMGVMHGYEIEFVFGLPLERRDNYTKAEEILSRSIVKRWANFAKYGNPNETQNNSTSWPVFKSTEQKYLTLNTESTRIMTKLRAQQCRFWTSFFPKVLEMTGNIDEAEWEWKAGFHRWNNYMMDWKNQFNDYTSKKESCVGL

COc1ccc2c3c1O[C@H]1C[C@@H](O)C=C[C@@]31CCN(CCCCN1C(=O)c3ccccc3S1(=O)=O)C2 [Nr 161]
IC50 (Butyrylcholinesterase): 1.5 µM | IC50 (Acetylcholinesterase): 0.022 µM

C#CC[N+]1(C)CCC23C=C[C@@H](O)CC2Oc2c(OC)cc(C)c(c23)C1 (mixture of isomers) [Nr 103]
IC50 (Butyrylcholinesterase): 45 µM | IC50 (Acetylcholinesterase): 59 µM

COc1ccc2c3c1O[C@@H]1C[C@H](O)C=C[C@]31CCN(C(=O)NC(C)C)C2 [Nr 126]
IC50 (Butyrylcholinesterase): 90 µM | IC50 (Acetylcholinesterase): 8 µM

COc1ccc2c(c1)CC(CCCCN1CC[C@@]34C=C[C@H](O)C[C@@H]3Oc3c(OC)ccc(c34)C1)C2=O (stereo partly shown) [Nr 157]
IC50 (Butyrylcholinesterase): 0.8 µM | IC50 (Acetylcholinesterase): 0.022 µM

CC(C)NC(=O)N1CC[C@@]23C=C[C@H](O)C[C@@H]2Oc2c(O)ccc(c23)C1 [Nr 130]
IC50 (Butyrylcholinesterase): 60 µM | IC50 (Acetylcholinesterase): 6.3 µM

COc1ccc2c3c1OC1C[C@@H](O)C=CC31CCN(CCCN1CC3CC1CN3c1ccc(F)cc1)C2 (mixture of isomers) [Nr 61]
IC50 (Butyrylcholinesterase): 5 µM | IC50 (Acetylcholinesterase): 5.2 µM

C#CC[N+]1(C)CCC23C=C[C@H](O)CC2Oc2c(OC)cc(C)c(c23)C1 (mixture of isomers) [Nr 68]
IC50 (Butyrylcholinesterase): 2.5 µM | IC50 (Acetylcholinesterase): 78 µM

COc1ccc2c3c1O[C@H]1C[C@@H](O)C=C[C@@]31CC[N+](C)(CC1CC1)C2 (stereo partly shown) [Nr 53]
IC50 (Butyrylcholinesterase): 3.6 µM | IC50 (Acetylcholinesterase): 1.2 µM

CCOC(=O)NN(CN1CC[C@@]23C=C[C@H](O)C[C@@H]2Oc2c(OC)ccc(c23)C1)C(=O)OCC [Nr 159]
IC50 (Butyrylcholinesterase): > 100 µM | IC50 (Acetylcholinesterase): 3 µM

COc1ccc2c3c1O[C@H]1C[C@@H](O)C=C[C@@]31CC[N+](C)(Cc1ccc(Br)cc1)C2 (stereo partly shown) [Nr 58]
IC50 (Butyrylcholinesterase): 0.6 µM | IC50 (Acetylcholinesterase): 0.2 µM

COc1cc(C)c2c3c1OC1C[C@@H](O)C=CC31CC[N+](C)(Cc1ccccc1)C2 (mixture of isomers) [Nr 69]
IC50 (Butyrylcholinesterase): 0.7 µM | IC50 (Acetylcholinesterase): 47 µM

C=C(C)C[N+]1(C)CCC23C=C[C@@H](O)CC2Oc2c(OC)cc(C)c(c23)C1 (mixture of isomers) [Nr 102]
IC50 (Butyrylcholinesterase): 95 µM | IC50 (Acetylcholinesterase): > 100 µM

C=CCN1CCC23C=C[C@H](O)CC2Oc2c(OC)cc(C)c(c23)C1 (mixture of isomers) [Nr 62]
IC50 (Butyrylcholinesterase): 2.3 µM | IC50 (Acetylcholinesterase): > 100 µM

C=CCNC(=S)N1CCC23C=C[C@H](O)CC2Oc2c(OC)ccc(c23)C1 (mixture of isomers) [Nr 91]
IC50 (Butyrylcholinesterase): > 100 µM | IC50 (Acetylcholinesterase): 21 µM

COc1cc(C)c2c3c1OC1C[C@@H](O)C=CC31CCN(CCCN1CCCCC1)C2 (mixture of isomers) [Nr 64]
IC50 (Butyrylcholinesterase): 0.6 µM | IC50 (Acetylcholinesterase): 46 µM

COc1cc(N)c2c3c1O[C@H]1C[C@@H](O)C=C[C@@]31CCN(C)C2 [Nr 48]
IC50 (Butyrylcholinesterase): 4.9 µM | IC50 (Acetylcholinesterase): 77 µM

C#CC[N+]1(C)CC[C@@]23C=C[C@H](O)C[C@@H]2Oc2c(OC)ccc(c23)C1 (stereo partly shown) [Nr 16]
IC50 (Butyrylcholinesterase): 1.7 µM | IC50 (Acetylcholinesterase): 1.4 µM

COc1cc2c(cc1OC)C(=O)C(CCCCN1CC[C@@]34C=C[C@H](O)C[C@@H]3Oc3c(OC)ccc(c34)C1)C2 (stereo partly shown) [Nr 154]
IC50 (Butyrylcholinesterase): 0.8 µM | IC50 (Acetylcholinesterase): 0.02 µM

COc1ccc2c3c1OC1C[C@@H](O)C=CC31CCN(C(=O)Nc1ccccc1)C2 (mixture of isomers) [Nr 76]
IC50 (Butyrylcholinesterase): > 100 µM | IC50 (Acetylcholinesterase): 70 µM

COc1ccc2c3c1OC1C[C@@H](O)C=CC31CCN(CCC(=O)NC(C)(C)C)C2 (mixture of isomers) [Nr 101]
IC50 (Butyrylcholinesterase): 26 µM | IC50 (Acetylcholinesterase): 45 µM

COc1ccc2c3c1OC1C[C@@H](O)C=CC31CCN(c1ccnc(OCCCN(C)C)n1)C2 (mixture of isomers) [Nr 96]
IC50 (Butyrylcholinesterase): 36 µM | IC50 (Acetylcholinesterase): 7.4 µM

COc1cc(C)c2c3c1OC1C[C@@H](O)C=CC31CC[N+](C)(C)C2 (mixture of isomers) [Nr 107]
IC50 (Butyrylcholinesterase): 14 µM | IC50 (Acetylcholinesterase): > 100 µM

COc1cc([N+](=O)[O-])c2c3c1O[C@H]1C[C@@H](O)C=C[C@@]31CCN(C)C2 [Nr 45]
IC50 (Butyrylcholinesterase): 25 µM | IC50 (Acetylcholinesterase): > 100 µM

COc1ccc2c3c1O[C@H]1C[C@@H](O)C=C[C@@]31CCN(/C(=N/C#N)SC)C2 [Nr 117]
IC50 (Butyrylcholinesterase): 30 µM | IC50 (Acetylcholinesterase): 6.7 µM

COc1ccc2c3c1O[C@H]1C[C@@H](O)C=C[C@@]31CCN(CCCO)C2 [Nr 144]
IC50 (Butyrylcholinesterase): 5 µM | IC50 (Acetylcholinesterase): 2.8 µM

COc1ccc2c3c1O[C@H]1C[C@@H](O)C=C[C@@]31CCN(CCN)C2 [Nr 141]
IC50 (Butyrylcholinesterase): 2.1 µM | IC50 (Acetylcholinesterase): 1.3 µM

COc1ccc2c3c1O[C@H]1C[C@@H](O)C=C[C@@]31CCN(CCCN1CCCCC1)C2 [Nr 128]
IC50 (Butyrylcholinesterase): 1.5 µM | IC50 (Acetylcholinesterase): 0.3 µM

C=CCN1CCC23C=C[C@H](O)CC2Oc2c(OC)cc(Br)c(c23)C1 (mixture of isomers) [Nr 35]
IC50 (Butyrylcholinesterase): 2.6 µM | IC50 (Acetylcholinesterase): > 100 µM

COc1ccc2c3c1OC1C[C@@H](O)C=CC31CCN(C(=O)Nc1ccc(Cl)cc1)C2 (mixture of isomers) [Nr 92]
IC50 (Butyrylcholinesterase): > 100 µM | IC50 (Acetylcholinesterase): 24 µM

C=CC[N+]1(C)CCC23C=C[C@@H](O)CC2Oc2c(OC)cc(C)c(c23)C1 (mixture of isomers) [Nr 104]
IC50 (Butyrylcholinesterase): 52 µM | IC50 (Acetylcholinesterase): > 100 µM

COc1ccc2c3c1O[C@H]1C[C@@H](O)C=C[C@@]31CCN(C(=O)NC(C)(C)C)C2 [Nr 115]
IC50 (Butyrylcholinesterase): 7 µM | IC50 (Acetylcholinesterase): 2.5 µM

COc1ccc2c3c1O[C@H]1C[C@@H](O)C=C[C@@]31CCN(CCC(=O)O)C2 [Nr 120]
IC50 (Butyrylcholinesterase): 40 µM | IC50 (Acetylcholinesterase): 42 µM

COc1ccc2c3c1O[C@H]1C[C@@H](O)C=C[C@@]31CCN(C(=S)Oc1ccccc1)C2 [Nr 149]
IC50 (Butyrylcholinesterase): > 100 µM | IC50 (Acetylcholinesterase): 7.2 µM

COc1ccc2c3c1OC1C/C(=N/N(C)C)C=CC31CCN(C)C2 (racemic) [Nr 24]
IC50 (Butyrylcholinesterase): 60 µM | IC50 (Acetylcholinesterase): 80 µM

COc1cc2c(cc1OC)C(=O)C(CCCCCN1CC[C@@]34C=C[C@H](O)C[C@@H]3Oc3c(OC)ccc(c34)C1)C2 (stereo partly shown) [Nr 158]
IC50 (Butyrylcholinesterase): 0.24 µM | IC50 (Acetylcholinesterase): 0.0052 µM

COc1cc(Br)c2c3c1OC1C[C@@H](O)C=CC31CCN(CC#N)C2 (mixture of isomers) [Nr 19]
IC50 (Butyrylcholinesterase): 70 µM | IC50 (Acetylcholinesterase): > 100 µM

COc1ccc2c3c1O[C@H]1C[C@@H](O)C=C[C@@]31CC[N+](C)(CC=C(C)C)C2 (stereo partly shown) [Nr 54]
IC50 (Butyrylcholinesterase): 0.21 µM | IC50 (Acetylcholinesterase): 0.2 µM

COc1ccc2c3c1O[C@H]1C[C@@H](O)C=C[C@@]31CCN(C(=O)Oc1ccccc1)C2 [Nr 137]
IC50 (Butyrylcholinesterase): > 100 µM | IC50 (Acetylcholinesterase): 46 µM

COc1cc(C)c2c3c1OC1C[C@@H](O)C=CC31CCN(C)C2 (mixture of isomers) [Nr 63]
IC50 (Butyrylcholinesterase): 17 µM | IC50 (Acetylcholinesterase): > 100 µM

COc1cc(C)c2c3c1O[C@H]1C[C@H](O)C=C[C@@]31CCN(CCCN1CCCCC1)C2 [Nr 138]
IC50 (Butyrylcholinesterase): 70 µM | IC50 (Acetylcholinesterase): > 100 µM

C#CCN1CCC23C=C[C@H](O)CC2Oc2c(OC)cc(Br)c(c23)C1 (mixture of isomers) [Nr 23]
IC50 (Butyrylcholinesterase): 10 µM | IC50 (Acetylcholinesterase): 63 µM

C=CCCC(=O)N1CC[C@@]23C=C[C@H](O)C[C@@H]2Oc2c(OC)ccc(c23)C1 [Nr 147]
IC50 (Butyrylcholinesterase): 2.6 µM | IC50 (Acetylcholinesterase): 8.4 µM

COc1ccc2c3c1O[C@H]1C[C@@H](O)C=C[C@@]31CCN(C)C2C#N (stereo partly shown) [Nr 133]
IC50 (Butyrylcholinesterase): > 100 µM | IC50 (Acetylcholinesterase): 0.8 µM

COc1ccc2c3c1OC1C[C@@H](O)C=CC31CCN(CCCN1CC3CC1CN3c1ccccc1)C2 (mixture of isomers) [Nr 60]
IC50 (Butyrylcholinesterase): 7.5 µM | IC50 (Acetylcholinesterase): 24 µM

COc1ccc2c3c1OC1C[C@@H](O)C=CC31CCN(c1nccc(Cl)n1)C2 (mixture of isomers) [Nr 89]
IC50 (Butyrylcholinesterase): > 100 µM | IC50 (Acetylcholinesterase): 66 µM

COc1ccc2c3c1OC1C[C@@H](O)C=CC31CCN(CC#N)C2 (mixture of isomers) [Nr 37]
IC50 (Butyrylcholinesterase): > 100 µM | IC50 (Acetylcholinesterase): 30 µM

CCOC(=O)CCN1CCC23C=C[C@H](O)CC2Oc2c(OC)cc(Br)c(c23)C1 (mixture of isomers) [Nr 55]
IC50 (Butyrylcholinesterase): 19 µM | IC50 (Acetylcholinesterase): > 100 µM
